Each structure is given as a SMILES string. ≈ marks a conversion by molar mass, not a printed value.

For the data set the following is noted: buffer; pH 7.4; 200.0 µM.
By kinetic solubility is commonly meant the concentration staying in solution when a stock, usually in DMSO, is diluted into the medium. Regarding `O=C(CCCCN1CCCCC1)c1ccc2c(c1)Cc1ccccc1-2`, the kinetic solubility worked out at 6.6 µg/mL (≈ 19.8 µM).

In the case of `Cc1cccc(NC(=O)c2cccnc2Cl)n1`, the kinetic solubility was above 37.2 µg/mL. Molecule `N/C(=N\OC(=O)Nc1cccc(C(F)(F)F)c1)c1ccno1` displayed a solubility (kinetic) of 18.7 µg/mL (≈ 59.5 µM). Consider `C[C@H](NC(=O)c1ccco1)C(=O)Nc1cc(S(=O)(=O)N2CCCC2)ccc1OCC(F)(F)F`, for which the solubility (kinetic) was above 73.4 µg/mL.

Take `Cc1cccc(NC(=O)Cn2cnc3c(oc4ccccc43)c2=O)c1`: the solubility (kinetic) is below 0.2 µg/mL. `O=C(O)c1cc(-c2ccc(Cl)cc2)n(-c2ccc(F)cc2)n1` yielded a kinetic solubility above 47.5 µg/mL. `Cc1c(Cl)cccc1NC(=O)C1COc2ccccc2O1` (configuration not stated) came in with a kinetic solubility of 30.6 µg/mL (≈ 101 µM). On to `N/C(Cc1nc(-c2ccc(Cl)cc2)cs1)=N/O`, for which the solubility (kinetic) is 32.3 µg/mL (≈ 121 µM).

Molecule `COc1cccc(CN(C)S(=O)(=O)c2cccs2)c1` yielded a solubility (kinetic) of 25.1 µg/mL (≈ 84.4 µM).

For `O=C1C2C3C=CC(CC3)C2C(=O)N1c1cccc(Br)c1` (configuration not stated), the kinetic solubility was found to be 2 µg/mL (≈ 6.02 µM).

Consider `NS(=O)(=O)c1ccc(CCNC(=O)c2ccc(Cl)nc2)cc1`, for which the solubility (kinetic) is above 51 µg/mL. The molecule `O=C(NCCN1CCOCC1)c1cc([N+](=O)[O-])cc([N+](=O)[O-])c1` yielded a solubility (kinetic) above 48.6 µg/mL.

Turning to `CCCC1Cc2c(sc(N)c2C#N)CO1` (configuration not stated), the kinetic solubility is above 33.3 µg/mL. In turn, `Cn1c(C(=O)O)cc2c(=O)n3ccccc3nc21` registered a kinetic solubility above 36.5 µg/mL. Molecule `CC1=C([N+](=O)[O-])C(c2ccc3c(c2)OCO3)N(C)C(=O)N1C` (configuration not stated) showed a kinetic solubility of 36.4 µg/mL (≈ 119 µM). Regarding `Cc1ccc(CCS(=O)(=O)c2ccc(C(C)(C)C)cc2)cn1`, the kinetic solubility is above 47.6 µg/mL. `Cc1ccccc1CN1C(=O)c2ccccc2S1(=O)=O` yielded a kinetic solubility of 2.5 µg/mL (≈ 8.7 µM).

As to `COc1ccc(CC2SC(=Nc3ccc(F)cc3)NC2=O)cc1` (configuration not stated), the kinetic solubility worked out at 2.3 µg/mL (≈ 6.96 µM).

Turning to `Cc1ccc(S(=O)(=O)c2c(C)cc(C)[nH]c2=O)c(C)c1`, the solubility (kinetic) was above 43.7 µg/mL.

`O=C(Nc1ccc(NC(=O)c2cccs2)cc1)c1cccs1`: the kinetic solubility was determined as 0.9 µg/mL (≈ 2.74 µM). On to `Cc1ccc(C#N)c(SCc2cccc(Br)c2)n1`, for which the solubility (kinetic) is below 0.3 µg/mL.

The molecule `Cc1ccc(C(=O)NCCCN2CCOCC2)c(C)c1` registered a solubility (kinetic) above 41.5 µg/mL. The molecule `O=C(Cn1ccnc1)c1ccc(Cl)cc1` displayed a kinetic solubility of 31.5 µg/mL (≈ 143 µM).

As to `Cc1ccccc1C(=O)c1cccn1CC(=O)NCc1ccccc1`, the kinetic solubility was determined as 12.7 µg/mL (≈ 38.2 µM). In the case of `Cl.Nc1cc(Cl)ccc1N1CCCC1`, the solubility (kinetic) was determined as 10.6 µg/mL. Then `CCc1ccccc1NC(=O)COc1ccc2c(c1)OCO2`, with 41.4 µg/mL (≈ 138 µM). Take `Cc1ccc(-c2[nH]c(=S)[nH]c(=O)c2C#N)cc1`: the solubility (kinetic) turned out to be 30.8 µg/mL (≈ 127 µM).

`Cc1ccc(NS(=O)(=O)c2cccc3nsnc23)cc1[N+](=O)[O-]` yielded a kinetic solubility of 50.2 µg/mL (≈ 143 µM).

The molecule `CC(CCc1ccccc1)NC(=O)c1ccccc1F` (configuration not stated) showed a kinetic solubility of 34.4 µg/mL (≈ 127 µM). As for `CC(=O)C(C(c1ccccc1)c1c[nH]c2ccccc12)[N+](=O)[O-]` (configuration not stated), the kinetic solubility was 29.1 µg/mL (≈ 94.4 µM). As to `CCc1cc(C(=O)Nc2ncccc2O)sc1C`, the kinetic solubility is above 39.3 µg/mL. The molecule `COc1ccc(C2C(C#N)=C(C)NC(C)=C2C#N)c(OC)c1` yielded a kinetic solubility of 4.6 µg/mL (≈ 15.6 µM). `CC(Sc1ncccn1)C(=O)Nc1ccc2c(c1)OCCO2` (configuration not stated) came in with a kinetic solubility above 47.6 µg/mL. In turn, `Cc1ccnc(N(C(=O)Nc2ccccc2)C2=NCC(C)(C)S2)c1` came in with a solubility (kinetic) of 25.3 µg/mL (≈ 74.3 µM).

The molecule `COc1cc2cc(C(=O)N(C)Cc3ccccc3)[nH]c2cc1OC` registered a kinetic solubility of 0.7 µg/mL (≈ 2.16 µM). For `N#Cc1c2c(c(NCCOCCO)n3c1nc1ccccc13)CCCC2`, the kinetic solubility is 27 µg/mL (≈ 77 µM). The molecule `CC(=O)Nc1ccc(NC(=O)COc2ccc(Cl)cc2Cl)cc1` returned a solubility (kinetic) of 1 µg/mL (≈ 2.83 µM). The figure for `CNC(=O)COC(=O)c1ccc(Cl)c(S(N)(=O)=O)c1` is above 46 µg/mL; for `CC(=O)C1=C(O)C(=O)N(c2cccnc2)C1c1cccc([N+](=O)[O-])c1` (configuration not stated) it is above 50.9 µg/mL; for `COC(=O)c1cccc(NC(=O)c2ccccc2)c1` it is 35.7 µg/mL (≈ 140 µM). For `COc1ccc(OCC(=O)Nc2ccc3oc(=O)ccc3c2)cc1`, the kinetic solubility is 3.3 µg/mL (≈ 10.1 µM). In turn, `N#Cc1ccccc1CSc1nc(N)cc(N)n1` registered a solubility (kinetic) of 36.6 µg/mL (≈ 142 µM). As for `Cc1ccccc1Cn1c(C)nc2ccc([N+](=O)[O-])cc2c1=O`, the solubility (kinetic) stood at 6.9 µg/mL (≈ 22.3 µM). Regarding `Cc1ccc2[nH]c3c(c2c1)CCN(C)C3`, the kinetic solubility is above 30 µg/mL. Then `O=C(COC(=O)c1cc(F)cc(F)c1)Nc1cccnc1Cl`, with 10.9 µg/mL (≈ 33.4 µM); and `CCOC(=O)CN1CCS(=O)(=O)CC1`, with above 33.2 µg/mL.

`CSc1ncccc1C(=O)Nc1ncc(C)s1`: the solubility (kinetic) was 5.7 µg/mL (≈ 21.5 µM). `O=C(Nc1ccc(Nc2ccccc2)cc1)c1ccc(Cl)cc1`: the solubility (kinetic) stood at 0.4 µg/mL (≈ 1.24 µM). In the case of `Cc1nc(SCC(=O)NCc2ccc3c(c2)OCO3)nc(C)c1C`, the solubility (kinetic) was above 51.8 µg/mL. Then `COC(=O)c1[nH]c2ccccc2c1NC(=O)c1c(F)cccc1F`, with 1.1 µg/mL (≈ 3.33 µM); and `CC(=O)c1c(COC(=O)c2ccccc2Cl)nc2ccccc2[n+]1[O-]`, with 15.9 µg/mL (≈ 44.6 µM). `O=C(CCc1ccccc1)Nc1ccc2c(c1)C(=O)OC2` showed a kinetic solubility of 15.4 µg/mL (≈ 54.7 µM).

Values taken from PubChem BioAssay AID1996.
